pIC50: −log10 of the molar value.
biological target: T1, human PAR-1 (Homo sapiens, UniProt P25116); assay: Inhibitory activity against PAR-1, calcium ion flux fluorescence method (FLIPR); format: cell-based; conditions: HEK293/Ga15 cells expressing human PAR-1, TFLLR-NH2 10 μM, starting concentration 30 μM
T1 construct: host or cells: HEK293/Ga15 recombinant cell line
T1 sequence (P25116 22-425): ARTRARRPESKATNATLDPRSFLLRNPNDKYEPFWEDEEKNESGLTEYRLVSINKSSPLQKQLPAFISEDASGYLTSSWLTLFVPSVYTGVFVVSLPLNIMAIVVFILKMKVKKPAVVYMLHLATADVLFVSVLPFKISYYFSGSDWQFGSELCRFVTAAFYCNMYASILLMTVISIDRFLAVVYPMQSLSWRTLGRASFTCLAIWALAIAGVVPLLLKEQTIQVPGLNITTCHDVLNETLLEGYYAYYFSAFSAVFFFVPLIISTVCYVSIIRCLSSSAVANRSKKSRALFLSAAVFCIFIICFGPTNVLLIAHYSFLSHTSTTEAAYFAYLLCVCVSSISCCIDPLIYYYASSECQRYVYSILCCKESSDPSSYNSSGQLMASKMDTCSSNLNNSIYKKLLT
Method: The inhibitory activity of the title compounds against human PAR-1 was determined by a calcium ion flux fluorescence method (an FLIPR method). The method thereof was reported in the literature of Zhong et al. [Zhong et al. J Biomol Struct Dyn, 2017, 35(13):2853].
An HEK293/Ga15 recombinant cell line (HD Biosciences, Shanghai, China) stably expressing human PAR-1 was cultured in a DMEM (Thermo Fisher Scientific, Shanghai) culture solution (containing 10% calf serum, 800 μg/mL G418). Incubator conditions were 37° C. and an air humidity with 5% CO2.
On the first day, 20 μL per well of PAR-1 cells at a concentration of 4E+5 cells/mL were seeded in a 384-well analysis plate (Corning 3712). […] On the second day, a culture solution in each well was poured off. Then, 20 μL of 1×loading dye (2 μM Fluo-8 AM in 1×HBSS with 20 mM HEPES, 1 mM Probenecid, 0.025% Pluronic F-127 assay buffer) was added in each well. The cell analysis plate was cultured for 1 hour at a room temperature.
The compounds were dissolved into 100% DMSO to prepare a 10 mM stock solution, which was stored at −20° C. On the day of use, the compound stock solution was thawed at a room temperature. Each compound was subjected to 1:3 serial dilution at 11 concentration points with a DMEM culture solution with a starting concentration of 30 μM. Each compound was subjected to double dilution for testing. A positive control compound was diluted in the same way with SCH79797 with a starting concentration of 30 μM.
The cell analysis plate was placed in a FLIPR instrument (Molecular Device) and 10 μL of compounds (3× of a final concentration) in a compound plate was added to corresponding wells of the cell analysis plate. After 10 minutes, 10 μL of TFLLR-NH2 (TFA) (a final concentration of 10 μM) was added to each well to stimulate generation of intracellular calcium flux signals. Ca^++-dependent fluorescence signals were continuously monitored at excitation wavelengths of 470/495 nm and emission wavelengths of 515/575 nm to analyze the inhibitory activity of the compounds.
Data were collected and analyzed by using an FLIPR program. The inhibitory (or agonistic) activity of the compounds at each concentration was assessed by fluorescence peaks. IC50 values of the compounds were calculated by using EXCEL and PRISM programs.

Structure (SMILES)	pIC50
Cc1ccc(C2=NN(C(=O)N[C@H](C)c3ccc(C(F)(F)F)nc3)C[C@@H]2N2CCOCC2=O)cc1 [Compound 1, (S)-4-(3-oxomorpholin-4-yl)-3-(4-methylphenyl)-N-((R)-1-(6-(trifluoromethyl)pyridin-3-yl)ethyl)-4,5-dihydro-1H-pyrazol-1-carboxamide]	< 4.52
Cc1ccc(C2=NN(C(=O)N[C@H](C)c3ccc(C(F)(F)F)cc3)C[C@@H]2N2CCOCC2=O)cc1 [Compound 20]	< 4.52
Cc1ccc(C2=NN(C(=O)N[C@H](C)c3ccc(C(F)(F)F)nn3)C[C@@H]2N2CCOCC2=O)cc1 [Compound 30, (S)-4-(3-oxomorpholin-4-yl)-3-(4-methylphenyl)-N-((R)-1-(6-(trifluoromethyl)pyridazin-3-yl)ethyl)-4,5-dihydro-1H-pyrazol-1-carboxamide]	< 4.52
Cc1ccc(C2=NN(C(=O)N[C@H](C)c3ccc(Cl)nn3)C[C@@H]2N2CCOC2=O)cc1 [Compound 31]	< 4.52
Cc1ccc(C2=NN(C(=O)N[C@H](C)c3nc(C)no3)C[C@@H]2N2CCCC2=O)cc1 [Compound 45]	< 4.52

More lines, now with the values ahead:

pIC50	Structure (SMILES)
< 4.52	Cc1ccc(C2=NN(C(=O)N[C@H](C)c3cnc(C(F)(F)F)nc3)C[C@@H]2N2CCOC2=O)cc1 [Compound 40, (S)-4-(2-oxooxazolidin-3-yl)-3-(4-methylphenyl)-N-((R)-1-(2-(trifluoromethyl)pyrimidin-5-yl)ethyl)-4,5-dihydro-1H-pyrazol-1-carboxamide]
< 4.52	Cc1ccc(C2=NN(C(=O)N[C@H](C)c3cnc(C(F)(F)F)nc3)C[C@@H]2N2CCN(C)C2=O)cc1 [Compound 41]

biological target: T2, human P2X3 (Homo sapiens, UniProt P56373); assay: cell-based; conditions: not given
T2 sequence (P56373 1-397): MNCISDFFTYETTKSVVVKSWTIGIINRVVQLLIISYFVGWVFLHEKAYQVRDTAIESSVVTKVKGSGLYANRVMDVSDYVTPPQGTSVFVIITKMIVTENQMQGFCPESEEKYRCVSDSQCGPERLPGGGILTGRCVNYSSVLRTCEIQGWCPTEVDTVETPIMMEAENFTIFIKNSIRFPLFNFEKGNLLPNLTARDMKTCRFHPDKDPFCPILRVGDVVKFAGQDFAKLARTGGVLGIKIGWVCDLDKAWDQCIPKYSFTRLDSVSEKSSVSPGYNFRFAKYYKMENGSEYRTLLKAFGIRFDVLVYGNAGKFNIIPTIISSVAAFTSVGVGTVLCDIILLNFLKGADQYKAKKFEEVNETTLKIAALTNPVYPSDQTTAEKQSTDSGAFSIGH

Structure (SMILES)	pIC50
C[C@@H](NC(=O)N1C[C@@H](N2CCOCC2=O)C(c2ccc(F)cc2)=N1)c1cnc(C(F)(F)F)nc1 [Compound 33a, (R)-4-(3-oxomorpholin-4-yl)-3-(4-fluorophenyl)-N-((R)-1-(2-(trifluoromethyl)pyrimidin-5-yl)ethyl)-4,5-dihydro-1H-pyrazol-1-carboxamide]	6.44
C[C@@H](NC(=O)N1C[C@H](N2CCOCC2=O)C(c2ccc(Cl)cc2)=N1)c1cnc(C(F)(F)F)nc1 [Compound 35, (S)-4-(3-oxomorpholin-4-yl)-3-(4-chlorophenyl)-N-((R)-1-(2-(trifluoromethyl)pyrimidin-5-yl)ethyl)-4,5-dihydro-1H-pyrazol-1-carboxamide]	6.67
C[C@@H](NC(=O)N1C[C@@H](N2CCOCC2=O)C(c2ccc(Cl)cc2)=N1)c1cnc(C(F)(F)F)nc1 [Compound 35a, (R)-4-(3-oxomorpholin-4-yl)-3-(4-chlorophenyl)-N-((R)-1-(2-(trifluoromethyl)pyrimidin-5-yl)ethyl)-4,5-dihydro-1H-pyrazol-1-carboxamide]	6.35
COc1ccc(C2=NN(C(=O)N[C@H](C)c3cnc(C(F)(F)F)nc3)C[C@@H]2N2CCOCC2=O)cc1 [Compound 36, (S)-4-(3-oxomorpholin-4-yl)-3-(4-methoxyphenyl)-N-((R)-1-(2-(trifluoromethyl)pyrimidin-5-yl)ethyl)-4,5-dihydro-1H-pyrazol-1-carboxamide]	6.55
COc1ccc(C2=NN(C(=O)N[C@H](C)c3cnc(C(F)(F)F)nc3)C[C@H]2N2CCOCC2=O)cc1 [Compound 36a, (R)-4-(3-oxomorpholin-4-yl)-3-(4-methoxyphenyl)-N-((R)-1-(2-(trifluoromethyl)pyrimidin-5-yl)ethyl)-4,5-dihydro-1H-pyrazol-1-carboxamide]	6.37
Cc1ncc([C@@H](C)NC(=O)N2C[C@H](N3CCOC3=O)C(c3ccc(Cl)cc3)=N2)cn1 [Compound 43, (S)-4-(2-oxooxazolidin-3-yl)-3-(4-chlorophenyl)-N-((R)-1-(2-methylpyrimidin-5-yl)ethyl)-4,5-dihydro-1H-pyrazol-1-carboxamide]	6.48
C[C@@H](NC(=O)N1C[C@H](N2CCCC2=O)C(c2ccc(F)cc2)=N1)c1cnc(Cl)nc1 [Compound 44, (S)-4-(2-oxopyrrolidin-1-yl)-3-(4-fluorophenyl)-N-((R)-1-(2-chloropyrimidin-5-yl)ethyl)-4,5-dihydro-1 H-pyrazol-1-carboxamide]	6.63
C[C@@H](NC(=O)N1C[C@@H](N2CCCC2=O)C(c2ccc(F)cc2)=N1)c1cnc(Cl)nc1 [Compound 44a, (R)-4-(2-oxopyrrolidin-1-yl)-3-(4-fluorophenyl)-N-((R)-1-(2-chloropyrimidin-5-yl)ethyl)-4,5-dihydro-1H-pyrazol-1-carboxamide]	6.38

Further lines, results first:

pIC50	Structure (SMILES)
6.77	CC(=O)N(C)[C@H]1CN(C(=O)N[C@H](C)c2cnc(C(F)(F)F)nc2)N=C1c1ccc(C)cc1 [Compound 34, (S)-4-(N-methylacetamido)-3-(4-methylphenyl)-N-((R)-1-(2-(trifluoromethyl)pyrimidin-5-yl)ethyl)-4,5-dihydro-1H-pyrazol-1-carboxamide]
6.64	CC(=O)N(C)[C@@H]1CN(C(=O)N[C@H](C)c2cnc(C(F)(F)F)nc2)N=C1c1ccc(C)cc1 [Compound 34a, (R)-4-(N-methylacetamido)-3-(4-methylphenyl)-N-((R)-1-(2-(trifluoromethyl)pyrimidin-5-yl)ethyl)-4,5-dihydro-1H-pyrazol-1-carboxamide]
5.43	CC(=O)N1CCN([C@H]2CN(C(=O)N[C@H](C)c3cnc(C(F)(F)F)nc3)N=C2c2ccc(C)cc2)CC1 [Compound 37, (S)-4-(4-acetylpiperazin-1-yl)-3-(4-methylphenyl)-N-((R)-1-(2-(trifluoromethyl)pyrimidin-5-yl)ethyl)-4,5-dihydro-1H-pyrazol-1-carboxamide]
5.57	Cc1ccc(C2=NN(C(=O)N[C@H](C)c3cnc(C(F)(F)F)nc3)C[C@@H]2N2CCN(C)CC2)cc1 [Compound 38]
5.21	Cc1ccc(C2=NN(C(=O)N[C@H](C)c3cnc(C(F)(F)F)nc3)C[C@@H]2N2CCOCC2)cc1 [Compound 39, (S)-4-(morpholin-4-yl)-3-(4-methylphenyl)-N-((R)-1-(2-(trifluoromethyl)pyrimidin-5-yl)ethyl)-4,5-dihydro-1H-pyrazol-1-carboxamide]
5.31	Cc1ccc(C2=NN(C(=O)N[C@H](C)c3cnc(C(F)(F)F)nc3)C[C@@H]2n2cccn2)cc1 [Compound 42]
